In patent US11168095B2, “ASK1 inhibiting agents” (BIOGEN MA INC., priority 2017, dated 2021):
Read-outs that look alike come from different tables or passages of the source.

Experiments:
ASK1/MAP3K5 = ASK1/MAP3K5 (Homo sapiens (Human), UniProt Q99683); assay: ASK1/MAP3K5 assay by Reaction Biology Corp.; format: biochemical
Procedure: ASK1/MAP3K5 was used as the protein kinase and 20 μM of myelin basic protein (MBP) and 10 μM ATP were used as the substrate.

[1] = target: ASK1 T838 auto phosphorylation in HEK-293T cells (Homo sapiens (Human), UniProt Q99683); assay: ASK1 (AUTO PHOS T838) assay, MSD format; format: cell-based; conditions: HEK 293T cells transfected with ASK1-V5 full length plasmid, compounds 1 hr at 37° C.; read-out: IC50
Procedure: The plates were incubated at 37° C. overnight. Media on plates was changed to OPTI-MEM, serum free media and cells were transfected with 9 μg of ASK1-V5 tagged full length plasmid using Lipofectamine 2000 (Invitrogen) and the plates were incubated at 37° C. overnight. Cells were trypsinized, counted on Nexcellometer and plated into 96 well tissue culture plates with 100,000 cells/well and 200 μL media. Cells were incubated for 4 hr at 37° C. then ASK1 compounds were added using a HP 300e. Compounds were tested at 20 μM with 3 fold, 10 point dilution points then incubated for 1 hr at 37° C. A lysis buffer (Cell Signaling) was prepared with protease and phosphatase inhibitor and maintained at 4° C. until use. Media from cells was discarded and 120 μL of cold lysis buffer was added to the cells, the plate was shaken 4° C. for 1 hr. Lysate was mixed using Apricot liquid handler; aspirating up and down 16 times at high speed using 50 μL volume. […] Plates were then incubated on a plate shaker overnight at 4° C. Plates were washed 3× with MSD wash buffer and 50 μL of rabbit anti-pASK1 T838 antibody was added to the wells and incubated for 2 hr at room temperature on a plate shaker. Plates were then washed and 50 μL of goat anti-rabbit sulfa-tag (1:500 dilution) was added to wells, and incubated for 1 hr at room temperature on a plate shaker. […] Plates were immediately read on a MSD Instrument Reader where chemoluminecense signal was measured. Data was analyzed using Graph Pad or Genedata, the data was normalized and plotted, % activity versus log of compound concentration. The IC50 values were obtained from a 4 parameter fit.

[2] = 20 μM myelin basic protein (MBP), 10 μM ATP

Sequence of ASK1 T838 auto phosphorylation in HEK-293T cells (Q99683 whole entry): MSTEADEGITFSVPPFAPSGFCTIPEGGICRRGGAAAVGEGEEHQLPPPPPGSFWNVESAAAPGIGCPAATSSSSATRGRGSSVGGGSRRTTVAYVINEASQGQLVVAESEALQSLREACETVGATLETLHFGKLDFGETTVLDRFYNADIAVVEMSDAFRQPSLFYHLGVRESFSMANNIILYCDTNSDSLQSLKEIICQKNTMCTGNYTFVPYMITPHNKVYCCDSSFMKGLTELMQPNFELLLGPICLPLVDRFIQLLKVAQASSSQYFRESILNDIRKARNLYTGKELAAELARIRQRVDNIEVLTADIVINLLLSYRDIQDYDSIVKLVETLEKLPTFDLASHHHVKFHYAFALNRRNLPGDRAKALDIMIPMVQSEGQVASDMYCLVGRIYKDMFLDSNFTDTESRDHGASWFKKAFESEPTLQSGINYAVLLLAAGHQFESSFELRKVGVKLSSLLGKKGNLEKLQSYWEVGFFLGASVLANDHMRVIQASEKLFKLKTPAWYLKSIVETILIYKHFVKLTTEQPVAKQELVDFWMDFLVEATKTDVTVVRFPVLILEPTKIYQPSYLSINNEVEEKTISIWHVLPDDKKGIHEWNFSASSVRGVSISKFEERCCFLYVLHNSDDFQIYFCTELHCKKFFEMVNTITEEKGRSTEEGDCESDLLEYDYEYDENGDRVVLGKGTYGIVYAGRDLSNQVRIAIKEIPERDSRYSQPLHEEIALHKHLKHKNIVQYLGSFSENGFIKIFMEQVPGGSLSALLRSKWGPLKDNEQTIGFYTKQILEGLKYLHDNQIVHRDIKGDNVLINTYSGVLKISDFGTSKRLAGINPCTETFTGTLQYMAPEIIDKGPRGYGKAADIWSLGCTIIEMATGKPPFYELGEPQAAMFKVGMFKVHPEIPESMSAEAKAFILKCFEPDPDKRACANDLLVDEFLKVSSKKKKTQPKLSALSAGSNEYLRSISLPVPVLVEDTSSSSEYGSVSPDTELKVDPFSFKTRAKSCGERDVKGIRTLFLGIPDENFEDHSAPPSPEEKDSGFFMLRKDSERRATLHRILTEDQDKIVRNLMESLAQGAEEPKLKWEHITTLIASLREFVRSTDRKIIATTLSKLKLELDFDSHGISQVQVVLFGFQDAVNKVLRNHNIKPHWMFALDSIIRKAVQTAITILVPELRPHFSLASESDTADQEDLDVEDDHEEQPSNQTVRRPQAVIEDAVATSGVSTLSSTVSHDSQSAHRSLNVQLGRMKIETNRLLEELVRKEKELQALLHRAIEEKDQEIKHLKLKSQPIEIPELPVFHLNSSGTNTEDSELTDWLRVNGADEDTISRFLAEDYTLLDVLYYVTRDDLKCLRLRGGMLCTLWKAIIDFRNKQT
Sequence of ASK1/MAP3K5 (Q99683 whole entry): as above

IC50 (ASK1/MAP3K5; [2]) [nM] | IC50 [1] [nM] | Structure (SMILES) | IC50 (ASK1/MAP3K5) [nM]
< 100 | < 1000 | CN1CCn2ncc(-c3cc4c(cc3F)OCCCCn3cnnc3-c3cccc(n3)NC4=O)c2C1 [Example 65, 5^4-Fluoro-5^5-(5-methyl-4,5,6,7-tetrahydropyrazolo[1,5-a]pyrazin-3-yl)-1^4H-6-oxa-3-aza-2(2,6)-pyridina-1(3,4)-triazola-5(1,2)-benzenacyclodecaphan-4-one] | –
< 100 | < 1000 | Cc1cn(-c2cc3c(cc2F)OCCCCn2cnnc2-c2cccc(n2)NC3=O)cn1 [Example 66, 5^4-Fluoro-5^5-(4-methyl-1H-imidazol-1-yl)-1^4H-6-oxa-3-aza-2(2,6)-pyridina-1(3,4)-triazola-5(1,2)-benzenacyclodecaphan-4-one] | –
< 100 | < 1000 | O=C1Nc2cccc(n2)-c2nncn2CCCCOc2cc(F)c(C3=CCOCC3)cc21 [Example 67, 5^5-(3,6-Dihydro-2H-pyran-4-yl)-5^4-fluoro-1^4H-6-oxa-3-aza-2(2,6)-pyridina-1(3,4)-triazola-5(1,2)-benzenacyclodecaphan-4-one] | –
< 100 | < 1000 | O=C1Nc2cccc(n2)-c2nncn2CCCCOc2cc(F)c(C3CCOCC3)cc21 [Example 68, 5^4-Fluoro-5^5-(tetrahydro-2H-pyran-4-yl)-1^4H-6-oxa-3-aza-2(2,6)-pyridina-1(3,4)-triazola-5(1,2)-benzenacyclodecaphan-4-one] | –
< 100 | < 1000 | CN1CCC(c2cc3c(cc2F)OCCCCn2cnnc2-c2cccc(n2)NC3=O)CC1 [Example 70, 5^4-Fluoro-5^5-(1-methylpiperidin-4-yl)-1^4H-6-oxa-3-aza-2(2,6)-pyridina-1(3,4)-triazola-5(1,2)-benzenacyclodecaphan-4-one] | –
< 100 | < 1000 | O=C1Nc2cccc(n2)-c2nncn2CCCCOc2cc(F)c(N3CCOCC3)cc21 [Example 71, 5^4-Fluoro-5^5-morpholino-1^4H-6-oxa-3-aza-2(2,6)-pyridina-1(3,4)-triazola-5(1,2)-benzenacyclodecaphan-4-one] | –
< 100 | < 1000 | CN1CCN(c2cc3c(cc2F)OCCCCn2cnnc2-c2cccc(n2)NC3=O)CC1 [Example 73, 5^4-Fluoro-5^5-(4-methylpiperazin-1-yl)-1^4H-6-oxa-3-aza-2(2,6)-pyridina-1(3,4)-triazola-5(1,2)-benzenacyclodecaphan-4-one] | –
< 100 | < 1000 | N#Cc1cc2c(cc1F)OCCCCn1cnnc1-c1cccc(n1)NC2=O [Example 74, 5^4-Fluoro-4-oxo-1^4H-6-oxa-3-aza-2(2,6)-pyridina-1(3,4)-triazola-5(1,2)-benzenacyclodecaphane-55-carbonitrile] | –
< 100 | < 1000 | COCCOc1cc2c(cc1F)OCCCCn1cnnc1-c1cccc(n1)NC2=O [Example 75, 5^4-Fluoro-5^5-(2-methoxyethoxy)-1^4H-6-oxa-3-aza-2(2,6)-pyridina-1(3,4)-triazola-5(1,2)-benzenacyclodecaphan-4-one] | –
< 100 | < 1000 | CN1CCC(c2ccc3c(c2)OCCCCn2cnnc2-c2cccc(n2)NC3=O)CC1 [Example 79, 5^4-(1-Methylpiperidin-4-yl)-1^4H-6-oxa-3-aza-2(2,6)-pyridina-1(3,4)-triazola-5(1,2)-benzenacyclodecaphan-4-one] | –
< 100 | < 1000 | O=C1Nc2cccc(n2)-c2nncn2CCCCOc2cc(N3CCOCC3)ccc21 [Example 80, 5^4-Morpholino-1^4H-6-oxa-3-aza-2(2,6)-pyridina-1(3,4)-triazola-5(1,2)-benzenacyclodecaphan-4-one] | –
< 100 | < 1000 | CN1CCN(c2ccc3c(c2)OCCCCn2cnnc2-c2cccc(n2)NC3=O)CC1 [Example 81, 5^4-(4-Methylpiperazin-1-yl)-1^4H-6-oxa-3-aza-2(2,6)-pyridina-1(3,4)-triazola-5(1,2)-benzenacyclodecaphan-4-one] | –
< 100 | < 1000 | C[C@H]1CN(C)CCN1c1ccc2c(c1)OCCCCn1cnnc1-c1cccc(n1)NC2=O [Example 82, (S)-5^4-(2,4-Dimethylpiperazin-1-yl)-1^4H-6-oxa-3-aza-2(2,6)-pyridina-1(3,4)-triazola-5(1,2)-benzenacyclodecaphan-4-one] | –
< 100 | < 1000 | C[C@@H]1CN(C)CCN1c1ccc2c(c1)OCCCCn1cnnc1-c1cccc(n1)NC2=O [Example 83, (R)-5^4-(2,4-Dimethylpiperazin-1-yl)-1^4H-6-oxa-3-aza-2(2,6)-pyridina-1(3,4)-triazola-5(1,2)-benzenacyclodecaphan-4-one] | –
< 100 | < 1000 | Cn1cc(-c2ccc3c(c2)OCCCCn2cnnc2-c2cccc(n2)NC3=O)cn1 [Example 84, 5^4-(1-Methyl-1H-pyrazol-4-yl)-1^4H-6-oxa-3-aza-2(2,6)-pyridina-1(3,4)-triazola-5(1,2)-benzenacyclodecaphan-4-one] | –
< 100 | < 1000 | CN1CCC(c2cc3c(cc2F)C(=O)Nc2cccc(n2)-c2nncn2CCCCO3)CC1 [Example 86, 5^5-Fluoro-5^4-(1-methylpiperidin-4-yl)-1^4H-6-oxa-3-aza-2(2,6)-pyridina-1(3,4)-triazola-5(1,2)-benzenacyclodecaphan-4-one] | –
< 100 | < 1000 | O=C1Nc2cccc(n2)-c2nncn2CCCCOc2cc(N3CCOCC3)c(F)cc21 [Example 87, 5^5-Fluoro-5^4-morpholino-1^4H-6-oxa-3-aza-2(2,6)-pyridina-1(3,4)-triazola-5(1,2)-benzenacyclodecaphan-4-one] | –
< 100 | < 1000 | COCCNc1cc2c(cc1F)C(=O)Nc1cccc(n1)-c1nncn1CCCCO2 [Example 88, 5^5-Fluoro-5^4-((2-methoxyethyl)amino)-1^4H-6-oxa-3-aza-2(2,6)-pyridina-1(3,4)-triazola-5(1,2)-benzenacyclodecaphan-4-one] | –
< 100 | < 1000 | C[C@H]1CCCOc2ccc(F)cc2C(=O)Nc2cccc(n2)-c2nncn21 [Example 99, (S)-5^5-Fluoro-10-methyl-1^4H-6-oxa-3-aza-2(2,6)-pyridina-1(3,4)-triazola-5(1,2)-benzenacyclodecaphan-4-one] | –
100 to 1000 | 1000 to 10000 | C[C@@H]1CCCOc2ccc(F)cc2C(=O)Nc2cccc(n2)-c2nncn21 [Example 100, (R)-5^5-Fluoro-10-methyl-1^4H-6-oxa-3-aza-2(2,6)-pyridina-1(3,4)-triazola-5(1,2)-benzenacyclodecaphan-4-one] | –
< 100 | < 1000 | C[C@H]1CCCOc2cc(F)c(Br)cc2C(=O)Nc2cccc(n2)-c2nncn21 [Example 101, (S)-5^5-Bromo-5^4-fluoro-10-methyl-1^4H-6-oxa-3-aza-2(2,6)-pyridina-1(3,4)-triazola-5(1,2)-benzenacyclodecaphan-4-one] | –
1000 to 10000 | > 10000 | C[C@@H]1CCCOc2cc(F)c(Br)cc2C(=O)Nc2cccc(n2)-c2nncn21 [Example 102, (R)-5^5-Bromo-5^4-fluoro-10-methyl-1^4H-6-oxa-3-aza-2(2,6)-pyridina-1(3,4)-triazola-5(1,2)-benzenacyclodecaphan-4-one] | –

Structure (SMILES) | IC50 (ASK1/MAP3K5; [2]) [nM] | IC50 [1] [nM] | IC50 (ASK1/MAP3K5) [nM]
CN1CC=C(c2cc3c(cc2F)OCCCCn2cnnc2-c2cccc(n2)NC3=O)CC1 [Example 69, 5^4-Fluoro-5^5-(1-methyl-1,2,3,6-tetrahydropyridin-4-yl)-1^4H-6-oxa-3-aza-2(2,6)-pyridina-1(3,4)-triazola-5(1,2)-benzenacyclodecaphan-4-one] | < 100 | < 1000 | –
O=C1Nc2cccc(n2)-c2nncn2CCCCOc2cc(F)c(N3CC4CC(C3)O4)cc21 [Example 72, 5^5-(6-Oxa-3-azabicyclo[3.1.1]heptan-3-yl)-5^4-fluoro-1^4H-6-oxa-3-aza-2(2,6)-pyridina-1(3,4)-triazola-5(1,2)-benzenacyclodecaphan-4-one] | < 100 | < 1000 | –
CN(C)CCOc1cc2c(cc1F)OCCCCn1cnnc1-c1cccc(n1)NC2=O [Example 76, 5^5-(2-(Dimethylamino)ethoxy)-5^4-fluoro-1^4H-6-oxa-3-aza-2(2,6)-pyridina-1(3,4)-triazola-5(1,2)-benzenacyclodecaphan-4-one] | – | < 1000 | < 100
CN1CC=C(c2ccc3c(c2)OCCCCn2cnnc2-c2cccc(n2)NC3=O)CC1 [Example 78, 5^4-(1-Methyl-1,2,3,6-tetrahydropyridin-4-yl)-1^4H-6-oxa-3-aza-2(2,6)-pyridina-1(3,4)-triazola-5(1,2)-benzenacyclodecaphan-4-one] | – | < 1000 | < 100
CN1CC=C(c2cc3c(cc2F)C(=O)Nc2cccc(n2)-c2nncn2CCCCO3)CC1 [Example 85, 5^5-Fluoro-5^4-(1-methyl-1,2,3,6-tetrahydropyridin-4-yl)-1^4H-6-oxa-3-aza-2(2,6)-pyridina-1(3,4)-triazola-5(1,2)-benzenacyclodecaphan-4-one] | < 100 | < 1000 | –
